Test system: shy1Δ knockout mutants
Experiment: Yeast drug repurposing screen, shy1Δ knockout mutants (haploid/diploid not separated)
Assay type: cell-based
Conditions: FIG. 12, inactive statins; test not named
Text: An aim of the present disclosure is to identify SURF1 Leigh Syndrome drug repurposing clinical candidates using a rapid turnaround, multi-species phenotypic screening approach that starts with the development and phenotypic characterization of genetically personalized yeast strains—“patient avatars”—and culminates in a drug repurposing screen, a process previously published for PMM2-CDG in Lao et al., 2019 Feb 7; 9(2):413423. […] Slow growth can be rescued in a pathway-agnostic high-throughput chemical suppressor screen. As in the case of PMM2-CDG, the SURF1 yeast ortholog, gene identifier SHY1, is essential undergrowth conditions that require functional mitochondria, i.e., respiration. The yeast species Yarrowia lipolytica was used for the screen since it is an obligate aerobe (requires oxygen to grow), contains a fully functional electron transport chain, and has already been prototyped in a drug repurposing screen (Perlstein 2020). A 384-well-plate growth-based assay with appropriate positive and negative controls was designed and optimized for a drug repurposing screen (~5,000 compounds). The drug repurposing screen for mitochondrial diseases involving complex IV deficiency is described herein. A general yeast screening method was discussed in Perlstein, Drug repurposing for mitochondrial diseases using a pharmacological model of complex I deficiency in the yeast Yarrowia lipolytica, bioRxiv, (2020), see https://www.biorxiv.org/content/10.1101/2020.01.08.899666v1.
Yeast cells completely lacking SURF1 are unable to grow in conditions that require their mitochondria to produce energy. Knocking out the SURF1 ortholog in yeast—SHY1—results in loss of the ability of the knockout mutant to grow on a non-fermentable carbon source, e.g., lactate or glycerol, that requires functional mitochondria. A shy1Δ knockout mutant is incapable of growing on YEPG, or yeast media spiked with ethanol and glycerol as the sole non-fermentable carbon sources.
A unique hit signature was identified using the pilot screen of ~2,500 known drugs. A drug repurposing screen was performed. BY4741 and BY4742 are wildtype haploid controls, BY4743 is the wildtype diploid control. PY14 and PY15 are haploid shy1Δ knockout mutants of each yeast mating type. PY16 is the diploid SHY1/shy1Δ heterozygous mutant, which grows just like BY4743. PY17 is the diploid homozygous shy1Δ knockout mutant. FIG. 20.
FIG. 22, FIG. 23, FIG. 24A, FIG. 24B. It is thought that the hits act by stabilizing cytochrome c oxidase.
The discernible red triangles are the hits; the larger the triangles, the more statistically significant the result. […] FIG. 25A and FIG. 25B. Haploid and diploid SURF1 deficient mutants were screened. The positive control is a wildtype (unmutated) yeast strain. […]

SMILES | activity of statins
CCC(C)(C)C(=O)O[C@H]1C[C@@H](C)C=C2C=C[C@H](C)[C@H](CC[C@@H]3C[C@@H](O)CC(=O)O3)[C@H]21 [simvastatin] | inactive
CC[C@H](C)C(=O)O[C@H]1C[C@@H](C)C=C2C=C[C@H](C)[C@H](CC[C@@H]3C[C@@H](O)CC(=O)O3)[C@H]21 [lovastatin] | inactive
CC[C@H](C)C(=O)O[C@H]1CCC=C2C=C[C@H](C)[C@H](CC[C@@H]3C[C@@H](O)CC(=O)O3)[C@H]21 [mevastatin] | inactive
CC[C@H](C)C(=O)O[C@H]1C[C@H](O)C=C2C=C[C@H](C)[C@H](CC[C@@H](O)C[C@@H](O)CC(=O)O)[C@H]21 [pravastatin] | inactive
